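Grown in 96-well plates, cells were treated for 48 hours with each compound at five concentrations. Insufficient inhibition: endpoint recorded as highest concentration tested. Definition used: TGI = concentration required for complete inhibition of growth.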
Assays:
Assay in all cases: inhibition of tumour cell growth, NCI panel, 48 h
[1] = test system: SK-MEL-5 melanoma
[2] = test system: M19-MEL melanoma
[3] = test system: SW-620 colon
[4] = test system: KM20L2 colon
[5] = test system: SNB-78 CNS
[6] = test system: SF-539 CNS
[7] = test system: HOP-18 NSCLC
[8] = test system: UACC-62 melanoma
[9] = test system: DMS 114 small cell lung
[10] = test system: RXF 393 renal
[11] = test system: NCI-H460 lung
[12] = test system: XF 498 CNS
[13] = test system: T-47D breast

Row | Compound | TGI [1] | TGI [2] | TGI [3] | TGI [4] | TGI [5] | TGI [6] | TGI [7] | TGI [8] | TGI [9] | TGI [10] | TGI [11] | TGI [12] | TGI [13]
1 | Cc1ccc(S(=O)(=O)N/N=C(\c2nc3ccc(Cl)cc3[nH]c2=O)C(O)c2cccc([N+](=O)[O-])c2)cc1 (configuration not stated) | > 100 µM | > 100 µM | > 100 µM | > 100 µM | > 100 µM | > 100 µM | > 100 µM | > 100 µM | > 100 µM | > 100 µM | > 100 µM | > 100 µM | 
2 | Cc1c(Cl)c2ccccc2n1S(=O)(=O)c1ccccc1 | > 100 µM |  | > 100 µM | > 100 µM |  | > 100 µM |  | > 100 µM | > 100 µM |  | > 100 µM | > 100 µM | 
3 | CCOC(=O)C1(C/C=C(/C)Cl)CCCC1=O (configuration not stated) | > 100 µM | > 100 µM |  | > 100 µM |  | > 100 µM | > 100 µM | > 100 µM | > 100 µM | > 100 µM | > 100 µM | > 100 µM | 
4 | COC(=O)/C=C1/CCC(C(=O)OC)N1 (configuration not stated) | > 100 µM | > 100 µM | > 100 µM | > 100 µM | > 100 µM | > 100 µM |  | > 100 µM | > 100 µM | > 100 µM | > 100 µM | > 100 µM | 
5 | COc1ccc(-c2cc(=O)c3cc4c(cc3[nH]2)OCO4)cc1OC | > 100 µM | > 100 µM | > 100 µM | > 100 µM | > 100 µM | > 100 µM | > 100 µM | > 100 µM | > 100 µM | > 100 µM | > 100 µM | > 100 µM | 
6 | CC(C)(C)N=NNc1cn(C2OC(CO)C(O)C2O)c(=O)[nH]c1=O (configuration not stated) | > 100 µM | > 100 µM | 34.7 µM | > 100 µM | > 100 µM |  | > 100 µM | > 100 µM | > 100 µM | > 100 µM | > 100 µM |  | 
7 | N#CC1=C(N)n2c(s/c(=C\c3ccc(Cl)cc3)c2=O)=C(c2nc3ccccc3[nH]2)C1c1ccc(Cl)cc1 (configuration not stated) | 11.3 µM | 9.15 µM | 3.03 µM | 6.06 µM |  | 3.56 µM |  | 2.92 µM | 4.37 µM |  | 8.03 µM | 3.38 µM | 
8 | COc1cc2c(c(OC)c1OC)-c1ccc(SC)c(=O)cc1[C@@H](NCc1ccc(C#N)cc1)CC2 | 15.6 µM | > 100 µM | > 100 µM | 0.00388 µM | > 100 µM | 0.00582 µM |  |  | 0.00534 µM | 0.00508 µM |  |  | 
9 | O=S(=O)(CCBr)CCBr | 19.8 µM | 15 µM | 5.74 µM | 23.2 µM |  | 18.6 µM | 32 µM | 11 µM | 6.72 µM | 5.88 µM | 29.9 µM |  | 
10 | NC(CCCC(N)P(=O)(O)c1ccccc1)P(=O)(O)c1ccccc1 (configuration not stated) |  | > 261 µM | > 261 µM | > 261 µM | > 261 µM | > 261 µM | > 261 µM | > 261 µM | > 261 µM | > 261 µM | > 261 µM | > 261 µM | 
11 | CCc1cc(Cc2cc(Cl)c(NC(=O)C(=O)C3NC(=O)NC3=O)c(CC)c2)cc(Cl)c1NC(=O)C(=O)C1NC(=O)NC1=O (configuration not stated) | > 100 µM | > 100 µM | 24.1 µM | > 100 µM | > 100 µM | > 100 µM | > 100 µM | > 100 µM | 83.9 µM | 59.9 µM | > 100 µM |  | 
12 | Clc1ccc(SC(/C=C/NNC2=NC(c3ccccc3)C(c3ccccc3)=NN2)c2ccccc2)cc1 (configuration not stated) | 31.2 µM | 99.4 µM | > 100 µM | 53.7 µM | > 100 µM | > 100 µM |  | 85.3 µM | 75.6 µM |  | > 100 µM | 54.6 µM | 
13 | O=C(c1ccc(Cl)cc1)c1ccc(OCCCOc2ccc(C(=O)c3ccc(Cl)cc3)cc2)cc1 | > 100 µM | > 100 µM | > 100 µM | > 100 µM |  | > 100 µM |  | > 100 µM | > 100 µM | > 100 µM | > 100 µM | > 100 µM | 
14 | O=c1[nH]c(=O)n(C2OC(COP(=O)(O)OP(=O)(O)OC3OC(CO)C(O)C(O)C3O)C(O)C2O)cc1F (configuration not stated) | 23.7 µM | 59.4 µM | > 100 µM | > 100 µM | > 100 µM | 1.49 µM | > 100 µM | 3.16 µM | > 100 µM | 0.529 µM | 0.429 µM | 16.1 µM | 
15 | Cc1nc(Nc2ccc(Cl)cc2)sc1C(=O)NNc1ccc([N+](=O)[O-])cc1[N+](=O)[O-] | 30.2 µM | 41.7 µM | 43.5 µM | 35.4 µM | > 100 µM | 32 µM | 27 µM | 28.6 µM | 37.8 µM | 30.7 µM | 34.7 µM | 32.4 µM | 
16 | CCCN(CCCC(NC(C)=O)C(=O)NCc1ccccc1)C(=O)N(CCCl)N=O (configuration not stated) | 37.8 µM | 28.1 µM | 49.7 µM | 46.7 µM | 71 µM | 5.95 µM | 64.7 µM | 12.6 µM | 65.7 µM | 35 µM | 23.6 µM | 30.3 µM | > 100 µM
17 | CN(C)c1ccc(C(=C(c2ccc(N(C)C)cc2)c2ccc(N(C)C)cc2)c2ccc(N(C)C)cc2)cc1 | 31.8 µM | 70.9 µM | 20.8 µM | 42.4 µM | > 100 µM | 28 µM | 26.1 µM | 36.1 µM | 49.3 µM | 25.2 µM | 32.3 µM |  | 
18 | O=[N+]([O-])C1CC/C(=N/O)c2nonc21 (configuration not stated) | > 10 µM |  | > 10 µM |  |  | > 10 µM |  | > 10 µM |  | > 10 µM | > 10 µM |  | > 10 µM
19 | O=C1Nc2ccccc2C12CCNC2Cc1ccccc1 (configuration not stated) | > 100 µM | > 100 µM | > 100 µM | > 100 µM |  | > 100 µM | > 100 µM | > 100 µM | > 100 µM |  | > 100 µM | > 100 µM | 
20 | BrCCCCCOc1ccc(-c2c3ccccc3c(-c3ccc(OCCCCCBr)cc3)c3ccccc23)cc1 | > 100 µM |  | > 100 µM |  |  | > 100 µM |  | > 100 µM |  | > 100 µM | > 100 µM |  | > 100 µM
21 | C[C@H](CCC(=O)NCCS(=O)(=O)O)[C@H]1CC[C@H]2[C@@H]3CC[C@@H]4C[C@H](O)CC[C@]4(C)[C@H]3CC[C@]12C | > 100 µM |  | > 100 µM |  |  | > 100 µM |  | > 100 µM |  | > 100 µM | > 100 µM |  | > 100 µM
22 | CCOC(=O)c1ccc(Nc2c3c(nc4ccccc24)CCCC3)cc1 | > 100 µM |  | > 100 µM |  |  | > 100 µM |  | > 100 µM |  | > 100 µM | > 100 µM |  | > 100 µM
23 | CCCCC(C#N)(OP1(=O)OC(c2ccccc2)C(C)N1C)c1ccccc1 (configuration not stated) | 34.2 µM |  | 34.3 µM |  |  | 31.2 µM |  | 29.4 µM |  | 33.1 µM | 31 µM |  | 55.1 µM
24 | COC(=O)C(Cc1c(C2Nc3ccccc3C2CC(NC(=O)CNC(C)=O)C(=O)OC)[nH]c2ccccc12)NC(=O)CNC(C)=O (configuration not stated) | > 100 µM |  | > 100 µM |  |  | > 100 µM |  | > 100 µM |  | > 100 µM | > 100 µM |  | > 100 µM

Source: PubChem BioAssay (NCI)
